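A five-concentration, 48-hour dose response in 96-well plates underlies each endpoint, interpolated linearly between surrounding concentrations. GI50 marks 50% less growth. TGI denotes the concentration required for complete inhibition of growth.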
Tests used:
Experiment in all cases: growth of human tumour cells (NCI), 48 h
786-0 renal = system: 786-0 renal
IGROV1 ovarian = system: IGROV1 ovarian
NCI-H226 lung = system: NCI-H226 lung
NCI-H23 lung = system: NCI-H23 lung
RPMI-8226 leukemia = system: RPMI-8226 leukemia
SK-MEL-28 melanoma = system: SK-MEL-28 melanoma
SN12C renal = system: SN12C renal
SNB-19 CNS = system: SNB-19 CNS
UO-31 renal = system: UO-31 renal
HCC-2998 colon = system: HCC-2998 colon

SMILES: Cc1ccc2nc(-c3ccccc3)c(N=O)n2c1
- TGI (786-0 renal): > 100 µM
- TGI (IGROV1 ovarian): > 100 µM
- TGI (NCI-H226 lung): > 100 µM
- TGI (NCI-H23 lung): > 100 µM
- TGI (RPMI-8226 leukemia): > 100 µM
- TGI (SK-MEL-28 melanoma): > 100 µM
- TGI (SN12C renal): 61 µM
- TGI (SNB-19 CNS): > 100 µM
- TGI (UO-31 renal): > 100 µM

SMILES: Cc1c(C(=O)CC(=O)C(=O)Nc2ccc(Cl)cc2)[n+](=O)c2ccccc2n1[O-]
- TGI (786-0 renal): > 100 µM
- TGI (IGROV1 ovarian): > 100 µM
- TGI (NCI-H226 lung): > 100 µM
- TGI (NCI-H23 lung): > 100 µM
- TGI (RPMI-8226 leukemia): > 100 µM
- TGI (SK-MEL-28 melanoma): > 100 µM
- TGI (SN12C renal): > 100 µM
- TGI (SNB-19 CNS): > 100 µM
- TGI (UO-31 renal): > 100 µM

SMILES: COc1ccc(S(=O)(=O)N/N=C/c2cc(I)cc([N+](=O)[O-])c2O)cc1OC
- TGI (786-0 renal): > 100 µM
- TGI (HCC-2998 colon): > 100 µM
- TGI (IGROV1 ovarian): > 100 µM
- TGI (NCI-H226 lung): 62.1 µM
- TGI (RPMI-8226 leukemia): 65.1 µM
- TGI (SN12C renal): > 100 µM
- TGI (SNB-19 CNS): 88.3 µM
- TGI (UO-31 renal): 53.4 µM

SMILES: Cc1[nH]c(=O)n2c(C)nnc2c1C(=O)Nc1cc(Cl)cc(Cl)c1
- TGI (786-0 renal): > 100 µM
- TGI (IGROV1 ovarian): 82 µM
- TGI (NCI-H226 lung): 68.5 µM
- TGI (NCI-H23 lung): 53 µM
- TGI (RPMI-8226 leukemia): > 100 µM
- TGI (SK-MEL-28 melanoma): 60.8 µM
- TGI (SN12C renal): 66.5 µM
- TGI (UO-31 renal): 68.2 µM

SMILES: C[C@]12CCC(=O)C(O)=C1CC[C@@H]1C2CC[C@]2(C)Nc3c(cnn3-c3ccccc3)CC12 (stereo not given in full)
- TGI (786-0 renal): > 100 µM
- TGI (HCC-2998 colon): > 100 µM
- TGI (IGROV1 ovarian): > 100 µM
- TGI (NCI-H226 lung): > 100 µM
- TGI (NCI-H23 lung): > 100 µM
- TGI (RPMI-8226 leukemia): 97.5 µM
- TGI (SK-MEL-28 melanoma): > 100 µM
- TGI (UO-31 renal): > 100 µM

SMILES: CC[C@@]1(OC(=O)CN)C(=O)OCc2c1cc1n(c2=O)Cc2cc3c(N)cccc3nc2-1
- GI50 (786-0 renal): < 0.01 µM
- TGI (786-0 renal): 0.203 µM
- GI50 (HCC-2998 colon): 0.084 µM
- TGI (HCC-2998 colon): 0.782 µM
- GI50 (IGROV1 ovarian): 0.115 µM
- GI50 (NCI-H226 lung): 0.0216 µM
- TGI (NCI-H226 lung): 0.498 µM
- GI50 (NCI-H23 lung): < 0.01 µM
- TGI (NCI-H23 lung): 0.0765 µM
- GI50 (RPMI-8226 leukemia): 0.0474 µM
- GI50 (SK-MEL-28 melanoma): 0.557 µM
- TGI (SK-MEL-28 melanoma): > 20.1 µM
- GI50 (SN12C renal): < 0.01 µM
- TGI (SN12C renal): 1.1 µM
- GI50 (SNB-19 CNS): < 0.01 µM
- TGI (SNB-19 CNS): > 100 µM

SMILES: COc1ccc(CC(=O)NCCc2ccc(OC)c(OC)c2)cc1Br
- TGI (786-0 renal): > 100 µM
- TGI (HCC-2998 colon): > 100 µM
- TGI (IGROV1 ovarian): > 100 µM
- TGI (NCI-H226 lung): > 100 µM
- TGI (NCI-H23 lung): > 100 µM
- TGI (SK-MEL-28 melanoma): > 100 µM
- TGI (SN12C renal): > 100 µM
- TGI (SNB-19 CNS): > 100 µM
- TGI (UO-31 renal): > 100 µM

SMILES: COc1ccc(/C(=N\O)c2cc(C)c(OC)c(C)c2)cc1O
- GI50 (786-0 renal): 0.0407 µM
- TGI (786-0 renal): > 100 µM
- GI50 (HCC-2998 colon): 0.0279 µM
- TGI (HCC-2998 colon): > 100 µM
- GI50 (IGROV1 ovarian): 0.0134 µM
- TGI (IGROV1 ovarian): > 100 µM
- GI50 (NCI-H226 lung): 11.2 µM
- TGI (NCI-H226 lung): > 100 µM
- GI50 (NCI-H23 lung): 0.0314 µM
- TGI (NCI-H23 lung): > 100 µM
- GI50 (SK-MEL-28 melanoma): 20.9 µM
- TGI (SK-MEL-28 melanoma): > 100 µM
- GI50 (SN12C renal): 0.0484 µM
- TGI (SN12C renal): > 100 µM
- GI50 (SNB-19 CNS): 0.0548 µM
- TGI (SNB-19 CNS): > 100 µM
- GI50 (UO-31 renal): 0.0709 µM
- TGI (UO-31 renal): > 100 µM

SMILES: Cc1cc(NS(=O)(=O)c2ccc(NC(=O)c3ccc(Cl)c4c(Nc5ccc(S(=O)(=O)N=C(N)N)cc5)c5ccccc5nc34)cc2)no1
- TGI (786-0 renal): > 100 µM
- TGI (HCC-2998 colon): 41.6 µM
- TGI (NCI-H23 lung): > 100 µM
- TGI (RPMI-8226 leukemia): > 100 µM
- TGI (SK-MEL-28 melanoma): > 100 µM
- TGI (SN12C renal): > 100 µM
- TGI (SNB-19 CNS): > 100 µM
- TGI (UO-31 renal): > 100 µM

SMILES: O=C(NCCCCCCNC(=O)OCCSCCn1cc(C(=O)NC(=O)OCc2ccccc2)c(=O)[nH]c1=O)OCCSCCn1cc(C(=O)NC(=O)OCc2ccccc2)c(=O)[nH]c1=O
- TGI (786-0 renal): > 100 µM
- TGI (HCC-2998 colon): > 100 µM
- TGI (IGROV1 ovarian): > 100 µM
- TGI (NCI-H226 lung): > 100 µM
- TGI (NCI-H23 lung): > 100 µM
- TGI (RPMI-8226 leukemia): > 100 µM
- TGI (SN12C renal): > 100 µM
- TGI (SNB-19 CNS): > 100 µM
- TGI (UO-31 renal): > 100 µM

SMILES: O=Cc1ccccc1B(O)O
- TGI (786-0 renal): > 100 µM
- TGI (IGROV1 ovarian): > 100 µM
- TGI (NCI-H226 lung): > 100 µM
- TGI (RPMI-8226 leukemia): 0.0472 µM
- TGI (SK-MEL-28 melanoma): > 100 µM
- TGI (SN12C renal): > 100 µM
- TGI (SNB-19 CNS): > 100 µM
- TGI (UO-31 renal): > 100 µM
